The results in this text go back to ChEMBL document CHEMBL4033633, “N-(Aroyl)-N-(arylmethyloxy)-α-alanines: Selective inhibitors of aldose reductase” (Bioorg Med Chem, 2017).

The target in assay [1] is Aldo-keto reductase family 1 member B1 (Rattus norvegicus, UniProt P07943). The assay can be described thus: Inhibition of Sprague-Dawley rat lens ALR2 using D,L-glyceraldehyde as substrate preincubated for 10 mins followed by substrate addition measured for 5 mins by spectrophotometric method.
In assay [2] the target is Aldo-keto reductase family 1 member A1 (Rattus norvegicus, UniProt P51635). The assay can be described thus: Inhibition of Sprague-Dawley rat kidney ALR1 using sodium D-glucuronate as substrate by spectrophotometric method.
Aldo-keto reductase family 1 member A1, sequence (P51635 whole entry, looked up): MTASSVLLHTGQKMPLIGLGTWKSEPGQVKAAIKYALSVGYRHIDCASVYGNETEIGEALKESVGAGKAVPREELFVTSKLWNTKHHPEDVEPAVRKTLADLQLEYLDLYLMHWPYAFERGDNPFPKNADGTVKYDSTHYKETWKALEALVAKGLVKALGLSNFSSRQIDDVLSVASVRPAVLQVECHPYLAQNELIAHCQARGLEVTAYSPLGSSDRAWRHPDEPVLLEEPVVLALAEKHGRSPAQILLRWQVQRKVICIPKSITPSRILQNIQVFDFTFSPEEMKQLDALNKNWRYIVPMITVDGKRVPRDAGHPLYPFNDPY
Assay [3] deals with Aldo-keto reductase family 1 member B1 (Bos taurus, UniProt P16116). In words: Inhibition of bovine lens ALR2 using D,L-glyceraldehyde as substrate measured for 4 mins by spectrophotometric method.

In general, IC50 refers to the concentration that inhibits the measured activity by half. Read a low IC50 as greater potency in that assay.

Each structure is given as a SMILES string.

On to `CC(C(=O)O)N(OCc1ccc(Cl)cc1)C(=O)c1ccccc1` (stereo not drawn), for which the concentration for half-maximal inhibition (IC50) in assay [1] was 2.69 µM; in assay [2], > 100 µM.
Taken in the same sequence, the figures for `COc1ccc(C(=O)N(OCc2cccc(Cl)c2)C(C)C(=O)O)cc1` (stereo not drawn) were > 100 µM and > 100 µM.
For `COc1ccc(C(=O)N(OCc2ccccc2Cl)C(C)C(=O)O)cc1` (stereo not drawn) the same measures were 2.38 µM and > 100 µM.
Taken in the same sequence, the figures for `COc1ccc(C(=O)N(OCc2ccccc2)C(C)C(=O)O)cc1` (stereo not drawn) were > 100 µM and > 100 µM.
Turning to `COc1ccc(C(=O)N(OCc2ccc(Cl)cc2)C(C)C(=O)O)cc1` (stereo not drawn), the results for the IC50 in assay [1] and in assay [2] were 10.1 µM and > 100 µM, respectively.
As to `COc1ccc(C(=O)N(CC(=O)O)OCc2ccccc2)cc1`, in assay [3], the IC50 amounted to 3.5 µM.
Same read-out and setting: for `COc1ccc(C(=O)N(CC(=O)O)OCc2ccc(Cl)cc2)cc1` the value was 6.3 µM.
As to `CC(C(=O)O)N(OCc1ccccc1Cl)C(=O)c1ccccc1` (stereo not drawn), the values for the IC50 in assay [1] and in assay [2] were 4.88 µM and > 100 µM, respectively.
As to `CC(C(=O)O)N(OCc1cccc(Cl)c1)C(=O)c1ccccc1` (stereo not drawn), the concentration for half-maximal inhibition (IC50) was 12.5 µM in assay [1] and > 100 µM in assay [2].
For the compound `CC(C(=O)O)N(OCc1ccccc1)C(=O)c1ccccc1` (stereo not drawn), the concentration for half-maximal inhibition (IC50) is 46.7 µM in assay [1] and > 100 µM in assay [2].
